Reference: US20110034454A1, “MORPHOLINO PYRIMIDINE DERIVATIVES AND THEIR USE IN THERAPY” (priority 2006, published 2011)
Several values for one entry are separate records, joined by “and”; a condition that tells them apart may be missing. Identical values can stand only once. Like-named read-outs stand apart in the source and are kept apart here.

Legend:
[1] = tested on: phosphorylation of Serine 473 in Akt, MDA-MB-468 cells; test: In vitro phospho-Ser473 Akt assay; assay type: cell-based; conditions: Homo sapiens, MDA-MB-468, Test (c), mean of five occasions, read-out: IC50 versus Serine 473 in Akt, mean value
Method: (c) In Vitro Phospho-Ser473 Akt Assay
This assay determines the ability of test compounds to inhibit phosphorylation of Serine 473 in Akt as assessed using Acumen Explorer technology (Acumen Bioscience Limited), a plate reader that can be used to rapidly quantitate features of images generated by laser-scanning.
A MDA-MB-468 human breast adenocarcinoma cell line (LGC Promochem, Teddington, Middlesex, UK, Catalogue No. HTB-132) was routinely maintained at 37° C. with 5% CO2 up to a confluency of 70-90% in DMEM containing 10% heat-inactivated FCS and 1% L-glutamine.
For the assay, the cells were detached from the culture flask using ‘Accutase’ (Innovative Cell Technologies Inc., San Diego, Calif., USA; Catalogue No. AT104) using standard tissue culture methods and resuspended in media to give 1.7×10^5 cells per mL. Aliquots (90 μl) were seeded into each of the inner 60 wells of a black Packard 96 well plate (PerkinElmer, Boston, Mass., USA; Catalogue No. 6005182) to give a density of ˜15000 cells per well. […]
No. 10010015). […] An aliquot of PBS (50 μl) was added to each well and the plates were sealed with black plate sealers and the fluorescence signal was detected and analysed.
Fluorescence dose response data obtained with each compound were analysed and the degree of inhibition of Serine 473 in Akt was expressed as an IC50 value.

[2] = target: T1, recombinant mTOR (Homo sapiens, UniProt P42345); test: In vitro mTOR kinase assay (AlphaScreen); assay type: biochemical; conditions: Test (a)
T1 construct: FLAG; made in house
T1 sequence (P42345 1362-2549): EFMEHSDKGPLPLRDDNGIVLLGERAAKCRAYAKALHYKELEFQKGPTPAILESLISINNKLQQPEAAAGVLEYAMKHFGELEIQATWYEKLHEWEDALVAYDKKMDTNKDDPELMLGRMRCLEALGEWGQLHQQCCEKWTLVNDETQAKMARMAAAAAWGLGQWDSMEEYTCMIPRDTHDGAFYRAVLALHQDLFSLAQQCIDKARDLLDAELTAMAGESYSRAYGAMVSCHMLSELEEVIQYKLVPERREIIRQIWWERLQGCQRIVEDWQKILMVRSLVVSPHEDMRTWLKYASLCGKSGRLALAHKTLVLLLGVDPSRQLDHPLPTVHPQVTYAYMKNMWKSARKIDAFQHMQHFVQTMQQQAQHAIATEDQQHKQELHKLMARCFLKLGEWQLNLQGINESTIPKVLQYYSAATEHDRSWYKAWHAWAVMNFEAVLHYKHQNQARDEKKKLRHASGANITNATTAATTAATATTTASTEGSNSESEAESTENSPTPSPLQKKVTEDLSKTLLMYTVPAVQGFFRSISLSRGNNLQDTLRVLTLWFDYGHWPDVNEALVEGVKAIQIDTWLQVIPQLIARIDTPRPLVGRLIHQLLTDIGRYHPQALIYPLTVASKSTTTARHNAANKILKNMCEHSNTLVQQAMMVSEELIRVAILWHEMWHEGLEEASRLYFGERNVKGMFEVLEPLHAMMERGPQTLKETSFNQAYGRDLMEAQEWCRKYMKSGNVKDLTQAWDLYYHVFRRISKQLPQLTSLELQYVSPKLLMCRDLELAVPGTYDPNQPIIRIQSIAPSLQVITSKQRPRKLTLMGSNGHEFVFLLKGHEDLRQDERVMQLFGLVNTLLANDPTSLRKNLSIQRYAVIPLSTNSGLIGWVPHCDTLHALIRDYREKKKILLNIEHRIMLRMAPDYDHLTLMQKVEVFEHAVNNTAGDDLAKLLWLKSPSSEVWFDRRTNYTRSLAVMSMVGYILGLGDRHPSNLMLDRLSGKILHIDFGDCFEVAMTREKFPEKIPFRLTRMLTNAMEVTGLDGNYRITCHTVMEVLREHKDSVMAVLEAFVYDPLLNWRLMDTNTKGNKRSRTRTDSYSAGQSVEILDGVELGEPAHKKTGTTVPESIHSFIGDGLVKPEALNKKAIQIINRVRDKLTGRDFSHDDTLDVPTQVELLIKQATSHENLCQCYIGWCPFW
Method: (a) In Vitro mTOR Kinase Assay
The assay used AlphaScreen technology (Gray et al., Analytical Biochemistry, 2003, 313: 234-245) to determine the ability of test compounds to inhibit phosphorylation by recombinant mTOR.
The HEK293 FLAG-tagged mTOR (1362-2549) stable cell line was routinely maintained at 37° C. with 5% CO2 up to a confluency of 70-90% in Dulbecco's modified Eagle's growth medium (DMEM; Invitrogen Limited, Paisley, UK Catalogue No. 41966-029) containing 10% heat-inactivated foetal calf serum (FCS; Sigma, Poole, Dorset, UK, Catalogue No. F0392), 1% L-glutamine (Gibco, Catalogue No. 25030-024) and 2 mg/ml Geneticin
(G418 sulfate; Invitrogen Limited, UK Catalogue No. 10131-027). […]
Each reaction was stopped by the addition of 10 μl of a mixture of EDTA (50 mM), bovine serum albumin (BSA; 0.5 mg/mL) and Tris-HCl pH7.4 buffer (50 mM) containing p70 S6 Kinase (T389) 1A5 Monoclonal Antibody (Cell Signalling Technology, Catalogue No. 9206B) and AlphaScreen Streptavidin donor and Protein A acceptor beads (200 ng; Perkin Elmer, Catalogue No. 6760002B and 6760137R respectively) were added and the assay plates were left for about 20 hours at room temperature in the dark. The resultant signals arising from laser light excitation at 680 nm were read using a Packard Envision instrument. […]
mTOR enzyme inhibition for a given test compound was expressed as an IC50 value.

[3] = target: T2, p110α Type Ia human PI3K (Homo sapiens, UniProt P42336); test: In vitro PI3K enzyme assay (AlphaScreen), p110α; assay type: biochemical; conditions: Test (b)
T2 construct: full length DNA of each of the p110α, p110β and p110δ Type Ia human PI3K p110 isoforms; 6-His; made in house
T2 sequence (P42336 whole entry, canonical isoform): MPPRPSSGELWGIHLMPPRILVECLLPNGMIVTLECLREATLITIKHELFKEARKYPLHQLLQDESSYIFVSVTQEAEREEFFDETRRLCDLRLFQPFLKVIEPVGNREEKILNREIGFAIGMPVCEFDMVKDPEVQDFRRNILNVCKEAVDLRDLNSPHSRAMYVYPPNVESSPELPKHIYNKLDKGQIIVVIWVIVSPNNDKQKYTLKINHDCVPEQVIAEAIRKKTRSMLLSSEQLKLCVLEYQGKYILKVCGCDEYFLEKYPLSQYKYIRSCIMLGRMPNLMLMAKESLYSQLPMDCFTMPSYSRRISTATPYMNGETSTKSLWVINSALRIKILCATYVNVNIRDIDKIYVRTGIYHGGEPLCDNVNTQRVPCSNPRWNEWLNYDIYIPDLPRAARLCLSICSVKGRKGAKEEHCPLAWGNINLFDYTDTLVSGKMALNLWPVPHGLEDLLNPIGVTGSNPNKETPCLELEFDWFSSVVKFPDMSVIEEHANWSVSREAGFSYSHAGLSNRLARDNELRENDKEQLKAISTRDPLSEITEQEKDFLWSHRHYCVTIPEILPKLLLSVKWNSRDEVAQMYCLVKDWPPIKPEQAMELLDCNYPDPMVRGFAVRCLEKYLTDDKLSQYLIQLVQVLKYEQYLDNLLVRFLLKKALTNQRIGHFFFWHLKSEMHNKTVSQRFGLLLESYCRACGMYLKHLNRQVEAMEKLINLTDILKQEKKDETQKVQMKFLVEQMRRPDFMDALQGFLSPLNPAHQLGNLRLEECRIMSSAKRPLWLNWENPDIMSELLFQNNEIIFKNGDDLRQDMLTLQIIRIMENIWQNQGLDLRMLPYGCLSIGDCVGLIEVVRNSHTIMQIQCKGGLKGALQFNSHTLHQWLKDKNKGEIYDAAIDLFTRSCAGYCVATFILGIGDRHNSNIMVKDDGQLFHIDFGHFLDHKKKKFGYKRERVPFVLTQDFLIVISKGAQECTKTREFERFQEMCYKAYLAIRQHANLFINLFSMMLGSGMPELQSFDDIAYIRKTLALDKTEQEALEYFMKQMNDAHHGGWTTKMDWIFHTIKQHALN
T2 sequence (P27986 whole entry partner, canonical isoform): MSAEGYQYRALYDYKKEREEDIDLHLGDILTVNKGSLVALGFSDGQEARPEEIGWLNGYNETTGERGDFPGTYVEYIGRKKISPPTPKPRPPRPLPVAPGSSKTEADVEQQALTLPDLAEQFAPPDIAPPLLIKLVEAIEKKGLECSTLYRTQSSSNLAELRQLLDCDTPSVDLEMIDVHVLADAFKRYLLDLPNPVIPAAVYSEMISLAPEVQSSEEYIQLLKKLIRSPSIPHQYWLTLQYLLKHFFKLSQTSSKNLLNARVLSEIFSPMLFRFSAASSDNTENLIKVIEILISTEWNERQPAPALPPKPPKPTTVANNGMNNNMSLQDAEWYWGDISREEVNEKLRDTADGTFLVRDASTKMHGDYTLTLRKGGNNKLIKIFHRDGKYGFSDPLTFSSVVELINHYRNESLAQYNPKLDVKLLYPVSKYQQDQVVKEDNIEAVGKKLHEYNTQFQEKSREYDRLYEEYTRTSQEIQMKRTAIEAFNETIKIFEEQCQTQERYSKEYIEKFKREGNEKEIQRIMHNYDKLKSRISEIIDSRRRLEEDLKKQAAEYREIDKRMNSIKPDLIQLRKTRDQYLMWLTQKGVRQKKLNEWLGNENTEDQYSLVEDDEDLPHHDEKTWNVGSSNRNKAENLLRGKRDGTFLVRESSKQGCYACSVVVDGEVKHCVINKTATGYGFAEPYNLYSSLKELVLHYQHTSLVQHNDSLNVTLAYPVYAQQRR
Text: (b) In Vitro PI3K Enzyme Assay
The assay used AlphaScreen technology (Gray et al., Analytical Biochemistry, 2003, 313: 234-245) to determine the ability of test compounds to inhibit phosphorylation by recombinant Type I PI3K enzymes of the lipid PI(4,5)P2.
DNA fragments encoding human PI3K catalytic and regulatory subunits were isolated from cDNA libraries using standard molecular biology and PCR cloning techniques. The selected DNA fragments were used to generate baculovirus expression vectors. In particular, full length DNA of each of the p110α, p110β and p110δ Type Ia human PI3K p110 isoforms (EMBL Accession Nos. HSU79143, S67334, Y10055 for p110 α, p110β and p110δ respectively) were sub-cloned into a pDEST10 vector (Invitrogen Limited, Fountain Drive, Paisley, UK). The vector is a Gateway-adapted version of Fastbac1 containing a 6-His epitope tag. A truncated form of Type Ib human PI3K p110γ isoform corresponding to amino acid residues 144-1102 (EMBL Accession No. X8336A) and the full length human p85α regulatory subunit (EMBL Accession No. HSP13KIN) were also sub-cloned into pFastBac1 vector containing a 6-His epitope tag. The Type Ia p110 constructs were co-expressed with the p85α regulatory subunit. […]
20 hours at room temperature in the dark. The resultant signals arising from laser light excitation at 680 nm were read using a Packard AlphaQuest instrument. […]

IC50 [1] [µM]	IC50 ([2]; mean of three occasions, read-out: IC50 versus mTOR kinase, mean value) [µM]	IC50 ([2]; single occasions, read-out: IC50 versus mTOR kinase)	IC50 ([3]; mean of three occasions, read-out: IC50 versus p110α Type Ia human PI3K, mean value) [µM]	IC50 ([3]; single occasions, read-out: IC50 versus p110α Type Ia human PI3K)	Structure (SMILES)
8.84	–	–	–	–	O=S(=O)(Cc1cc(N2CCOCC2)nc(-c2ccccn2)n1)c1ccccc1 [Example 44, 4-(benzenesulfonylmethyl)-6-morpholin-4-yl-2-pyridin-2-yl-pyrimidine]
–	5.4	3.9 µM and 4.1 µM and 8.2 µM	6.8	1.9 µM and 13 µM and 5.7 µM	O=S(=O)(CCc1cccc(C(F)(F)F)c1)Cc1cc(N2CCOCC2)nc(-c2ccccn2)n1 [Example 65, 4-morpholin-4-yl-2-pyridin-2-yl-6-[2-[3-(trifluoromethyl)phenyl]ethylsulfonylmethyl] pyrimidine]
